Columns and labels:
Assay in all cases: viability inhibition at highest dose (% inhibition); higher = more growth inhibition
MCF-7 = conditions: 72 h
Protocol: (§1)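 Percent inhibition of viability (CellTiter-Glo, 72 h) at the highest tested concentration (D5), normalised to DMSO (0%) and 100 µM benzethonium chloride (100%). Resistant lines and the 'in 1µM tamoxifen' arms were tested in 1 µM 4-OH-tamoxifen.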

BT-474 Tam2 = conditions: 4-OH-tamoxifen in medium 1 µM; 72 h
Protocol: as §1

ZR-75-1 = conditions: 72 h
Protocol: as §1

MCF-7 Tam1 = conditions: 4-OH-tamoxifen in medium 1 µM; 72 h
Protocol: as §1

T-47D Tam1 = conditions: 4-OH-tamoxifen in medium 1 µM; 72 h
Protocol: as §1

BT-474 = conditions: 72 h
Protocol: as §1

T-47D = conditions: 72 h
Protocol: as §1

BT-474 Tam1 = conditions: 4-OH-tamoxifen in medium 1 µM; 72 h
Protocol: as §1

T-47D Tam2 = conditions: 4-OH-tamoxifen in medium 1 µM; 72 h
Protocol: as §1

ZR-75-1 Tam2 = conditions: 4-OH-tamoxifen in medium 1 µM; 72 h
Protocol: as §1

ZR-75-1 Tam1 = conditions: 4-OH-tamoxifen in medium 1 µM; 72 h
Protocol: as §1

SMILES | viability inhibition at highest dose (MCF-7; 4-OH-tamoxifen in medium 0 µM) | viability inhibition at highest dose (MCF-7; 4-OH-tamoxifen in medium 1 µM) | viability inhibition at highest dose (BT-474 Tam2) | viability inhibition at highest dose (ZR-75-1; 4-OH-tamoxifen in medium 0 µM) | viability inhibition at highest dose (ZR-75-1; 4-OH-tamoxifen in medium 1 µM) | viability inhibition at highest dose (MCF-7 Tam1) | viability inhibition at highest dose (T-47D Tam1) | viability inhibition at highest dose (BT-474; 4-OH-tamoxifen in medium 0 µM) | viability inhibition at highest dose (BT-474; 4-OH-tamoxifen in medium 1 µM) | viability inhibition at highest dose (T-47D; 4-OH-tamoxifen in medium 0 µM) | viability inhibition at highest dose (T-47D; 4-OH-tamoxifen in medium 1 µM) | viability inhibition at highest dose (BT-474 Tam1) | viability inhibition at highest dose (T-47D Tam2) | viability inhibition at highest dose (ZR-75-1 Tam2) | viability inhibition at highest dose (ZR-75-1 Tam1)
CC(C)(C)NC(=O)[C@H]1CC[C@H]2[C@@H]3CC[C@H]4NC(=O)C=C[C@]4(C)[C@H]3CC[C@]12C [Finasteride] (drug 10000 nM) | -0.974 | 6.29 | 19.1 | -8.28 | 7.55 | 3.61 | 14.8 | -6.68 | -0.99 | -5.04 | -8.61 | 27.2 | 18 | 4.5 | -2.42
CCN1CCN(c2ccc(Nc3cc(N(C)C(=O)Nc4c(Cl)c(OC)cc(OC)c4Cl)ncn3)cc2)CC1 [NVP-BGJ398] (drug 1000 nM) | -15.8 | 2.98 | 5.89 | -1.6 | -10.3 | 0.341 | 5.28 | -15.6 | 1.03 | -9.62 | 3.56 | 14.4 | -8.43 | -4.28 | -4.94
CC(C)C[C@H](NC(=O)[C@H](CCc1ccccc1)NC(=O)CN1CCOCC1)C(=O)N[C@@H](Cc1ccccc1)C(=O)N[C@@H](CC(C)C)C(=O)[C@@]1(C)CO1 [Carfilzomib] (drug 1000 nM) | 91.8 | 96.5 | 93.7 | 76.9 | 85.7 | 92.7 | 96.3 | 79.9 | 96.2 | 86.2 | 91.1 | 97.8 | 96.8 | 75.9 | 80.2
CC1(C)CNc2cc(NC(=O)c3cccnc3NCc3ccncc3)ccc21 [Motesanib  (AMG-706)] (drug 10000 nM) | -2.53 | 1.3 | -2.84 | -8.12 | -2.93 | -1.95 | 9.4 | -7.25 | -16.2 | -15.1 | -10.7 | -2.75 | 12.6 | -1.27 | -1.35
c1ccc2c(CCNc3ccc(Nc4ccncc4)cc3)c[nH]c2c1 (drug 10000 nM) | 62.4 | 22.2 | 37.9 | 14 | 25.5 | 12.8 | 20.6 | -5.93 | 78 | 16.5 | 9.19 | 91.8 | 22.6 | 32.2 | 21.8
CNC(=O)c1ccccc1Sc1ccc2c(/C=C/c3ccccn3)n[nH]c2c1 [Axitinib] (drug 10000 nM) | 33 | 33.2 | 23.2 | 3.79 | 19.2 | 25 | 24.7 | 22 | 41.5 | 38.7 | 20.7 | 41.2 | 27.1 | 22.8 | 9.18
O=S(=O)(c1cccc2cnccc12)N1CCCNCC1 [Fasudil  (HA-1077)] (drug 50000 nM) | 21 | -0.98 | -12.9 | -7.56 | -6.81 | 7.1 | 2.59 | -7 | -17.4 | -20.9 | -12.4 | -5.55 | 20.1 | -8.22 | 3.21
CC1=C(/C=C/C(C)=C/C=C/C(C)=C/C(=O)O)C(C)(C)CCC1 [Tretinoin] (drug 10000 nM) | -12.3 | 14.5 | 7.81 | 0.707 | -8.55 | 15.9 | 14.5 | -1.01 | -18.6 | 3.78 | 2.8 | -5.43 | 14.5 | 4.01 | 5.21
CC(C)c1c(C(=O)Nc2ccccc2)c(-c2ccccc2)c(-c2ccc(F)cc2)n1CC[C@@H](O)C[C@@H](O)CC(=O)O [Atorvastatin] (drug 10000 nM) | 23.9 | 19.8 | 28.2 | 48.4 | 36.5 | 13.7 | 29.2 | 13.8 | 7.75 | 35.6 | 36.5 | 12.4 | 18.7 | 39.9 | 44.5
CC(C)n1cnc2c(NCCc3ccc(O)cc3)nc(-c3csc4ccccc34)nc21 [StemRegenin 1] (drug 10000 nM) | 51.4 | 65.3 | 89 | 8.1 | 26.6 | 18.6 | 41.9 | 25.1 | 96.4 | 35.4 | 50.4 | 95.2 | 54.1 | 24.2 | 19.8
CO[C@@H](C(=O)N1Cc2[nH]nc(NC(=O)c3ccc(N4CCN(C)CC4)cc3)c2C1)c1ccccc1 (drug 10000 nM) | 20.9 | 7.45 | -18.2 | -27.9 | -21.1 | 8.32 | 38.4 | -18.6 | -36.3 | 29.4 | 17.6 | -17.9 | 34.4 | -19.5 | -23.1
CC[C@]1(O)C[C@H]2CN(CCc3c([nH]c4ccccc34)[C@@](C(=O)OC)(c3cc4c(cc3OC)N(C=O)[C@H]3[C@@](O)(C(=O)OC)[C@H](OC(C)=O)[C@]5(CC)C=CCN6CC[C@]43[C@@H]65)C2)C1 [Vincristine] (drug 10000 nM) | 56.6 | 54.4 | 84.9 | 28.7 | 28.5 | 12.1 | 68.8 | 47.4 | 83.8 | 16.5 | 31.2 | 93.7 | 59 | 35.9 | 29.2
Cc1cccc(-c2nn3c(c2-c2ccnc4ccc(C(N)=O)cc24)CCC3)n1 (drug 1000 nM) | -2 | 17.5 | -0.548 | -10.5 | -14.4 | -5.09 | 8.11 | -8.01 | -14 | -10.5 | -3.66 | -3.5 | -11.8 | 0.591 | -1.45
COc1ccc(-c2ccc3c(N4CCOC[C@@H]4C)nc(N4CCOC[C@@H]4C)nc3n2)cc1CO [AZD8055] (drug 10000 nM) | 72.4 | 56.5 | 56.1 | 60 | 50.2 | 34.5 | 54.4 | 43.2 | 77.2 | 61 | 55.9 | 80.1 | 58.3 | 61 | 57.3
NC(=O)NO [Hydroxyurea] (drug 100000 nM) | -13.2 | 12.6 | 5.16 | -5.61 | 3.11 | 1.25 | -2.99 | -6.12 | 14.5 | -10.4 | 7.44 | 6.52 | 1.81 | -8.32 | 2.07
CO[C@H]1/C=C\C=C(/C)C(=O)NC2=CC(=O)C(NCCN(C)C)=C(C[C@@H](C)C[C@H](OC)[C@H](O)[C@@H](C)/C=C(\C)[C@@H]1OC(N)=O)C2=O [Alvespimycin (17-DMAG)] (drug 1000 nM) | 65 | 47.8 | 68.2 | 32.7 | 47 | 30.2 | 35 | 49 | 76.7 | 49.9 | 37.1 | 78.3 | 49.2 | 44.1 | 32.9
NC1(c2ccc(-c3nc4ccn5c(=O)[nH]nc5c4cc3-c3ccccc3)cc2)CCC1 [MK-2206] (drug 1000 nM) | 35.1 | 44.8 | 21.9 | 57.1 | 51.6 | 29.1 | 44.5 | 27.6 | 50.8 | 52.4 | 36.6 | 47 | 49.9 | 63.1 | 60.8
CC(C)(C#N)c1cc(Cn2cncn2)cc(C(C)(C)C#N)c1 [Anastrozole] (drug 10000 nM) | -4.15 | -2.23 | -3.02 | -9.38 | -3.76 | -5.71 | -5.37 | -8.01 | -8.68 | -9.21 | -3.66 | -0.566 | 2.94 | -10.2 | -5.43
Cc1c(C(=O)Nc2ccc(N3C[C@@H](C)O[C@@H](C)C3)nc2)cccc1-c1ccc(OC(F)(F)F)cc1 [Erismodegib (NVP-LDE225)] (drug 10000 nM) | 23.2 | 14.6 | 19 | -0.79 | 17.1 | 15.1 | 4.09 | 18 | 41.1 | 19.8 | 8.8 | 15.9 | 19.2 | 7.11 | 13.1
CC(C)C[C@@H](C(=O)N[C@H](C(=O)OC1CCCC1)c1ccccc1)[C@H](O)C(=O)NO [Tosedostat (CHR 2797)] (drug 10000 nM) | 40.5 | 38.1 | 28.5 | 22.3 | 28.8 | 14.2 | 46.1 | 19 | 54.7 | 33.3 | 15.7 | 34.7 | 48.2 | 37 | 30
CCCCCOC(=O)Nc1nc(=O)n([C@@H]2O[C@H](C)[C@@H](O)[C@H]2O)cc1F [Capecitabine] (drug 10000 nM) | -4.69 | -0.939 | -6.54 | 24.8 | 0.654 | -12 | 1.61 | -9.89 | -7.23 | -17.6 | -17 | 0.103 | 2.81 | 7.55 | 11.1
CN1CCN(c2nc(C3=C(c4c[nH]c5ccccc45)C(=O)NC3=O)c3ccccc3n2)CC1 [Sotrastaurin] (drug 10000 nM) | 21.3 | 10 | 25.2 | 6.75 | 14.4 | 8.16 | 8.91 | 9.38 | 48.9 | -8.99 | 1.91 | 65.2 | 6.92 | 7.03 | 9.64
O=C1c2c(O)ccc(O)c2C(=O)c2c(NCCNCCO)ccc(NCCNCCO)c21 [Mitoxantrone] (drug 1000 nM) | -3.19 | 7.73 | -13.6 | 29.7 | 20.2 | 1.72 | 47.8 | 3.96 | -1.95 | 29.5 | 2.9 | -23.8 | 21.5 | 24.9 | 21.3
O=C1CCC(N2C(=O)c3ccccc3C2=O)C(=O)N1 (stereo not given) [Thalidomide] (drug 10000 nM) | 1.74 | 5.08 | 1.4 | 5.91 | 12 | 4.57 | 0.973 | 2.41 | 13.6 | 0.793 | 10.3 | 2.81 | 4.15 | -1.28 | 6.53
COC(=O)c1ccc2c(c1)NC(=O)/C2=C(\Nc1ccc(N(C)C(=O)CN2CCN(C)CC2)cc1)c1ccccc1 [Nintedanib (BIBF 1120)] (drug 10000 nM) | 12.4 | 3.6 | -5.56 | -10.8 | -9.4 | -3.72 | -2.42 | 5.93 | 24.8 | -18.3 | -16.7 | 30.7 | 5.71 | -3.8 | 7.5
N#Cc1ccc(COC[C@H]2O[C@@H](n3c(NCc4ccc(Cl)c(Cl)c4)nc4c(N)ncnc43)[C@H](O)[C@@H]2O)cc1 (drug 10000 nM) | 46.5 | 49.6 | 38.6 | 55.3 | 49.5 | 25.6 | 48 | 20.7 | 65.8 | 42.5 | 29 | 49.5 | 34.5 | 51.2 | 46.4

From the supplement of paper PMC4932681
